# Assay results reported in patent publication US12077503B2, “Substituted cyclic amides and their use as herbicides” (FMC CORPORATION, priority 2015, dated 2024).
# Where two headings read alike, the source gives them in different places.
# What was measured:
# Assay type in all cases: in vivo
# [1] = test system: ryegrass, Italian (Italian ryegrass, Lolium multiflorum); assay: Test A preemergence; settings: Lolium multiflorum, pre-emergence, 240 h; for pest or weed control at 500 g/ha: 500 g ai/ha, preemergence; for pest or weed control at 125 g/ha: Preemergence, 125 g ai/ha
# In short: (§1)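 Each rating is a visual injury score from 0 to 100 given about 10 d after treatment, judged against untreated controls kept alongside in the greenhouse. In loam soil–sand blend, seeds got a preemergence directed soil spray, while postemergence plants were 2 to 10 cm tall at spraying.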
# [2] = test system: Galium (catchweed bedstraw, Galium aparine); assay: Test A postemergence; settings: Galium, post-emergence, 240 h, Postemergence; for pest or weed control at 125 g/ha: 125 g ai/ha, visual rating about 10 d after treatment, read-out: Galium plant response rating (0 to 100 scale); for pest or weed control at 500 g/ha: 500 g ai/ha, visual injury, 0 to 100 scale (0 no effect, 100 complete control), approx. 10 d, read-out: Plant response rating, Galium
# In short: as §1
# Kochia (Kochia scoparia) = assay: Test A postemergence; settings: Bassia scoparia, post-emergence, 240 h, Postemergence; for pest or weed control at 125 g/ha: 125 g ai/ha, visual rating about 10 d after treatment, read-out: Kochia plant response rating (0 to 100 scale); for pest or weed control at 500 g/ha: 500 g ai/ha, visual injury, 0 to 100 scale (0 no effect, 100 complete control), approx. 10 d, read-out: Plant response rating, Kochia
# In short: as §1
# [3] = test system: barnyardgrass (Echinochloa crus-galli); assay: Test A postemergence; settings: Echinochloa crus-galli, post-emergence, 240 h, Postemergence; for pest or weed control at 125 g/ha: 125 g ai/ha, visual rating about 10 d after treatment, read-out: Barnyardgrass plant response rating (0 to 100 scale, 0 no effect, 100 complete control); for pest or weed control at 500 g/ha: 500 g ai/ha, visual injury, 0 to 100 scale (0 no effect, 100 complete control), approx. 10 d, read-out: Plant response rating, Barnyardgrass
# In short: as §1
# [4] = test system: blackgrass (Alopecurus myosuroides); assay: Test A postemergence; settings: Alopecurus myosuroides, post-emergence, 240 h, Postemergence; for pest or weed control at 125 g/ha: 125 g ai/ha, visual rating about 10 d after treatment, read-out: Blackgrass plant response rating (0 to 100 scale); for pest or weed control at 500 g/ha: 500 g ai/ha, visual injury, 0 to 100 scale (0 no effect, 100 complete control), approx. 10 d, read-out: Plant response rating, Blackgrass
# In short: as §1
# corn (Zea mays) = assay: Test A postemergence; settings: Zea mays, post-emergence, 240 h, Postemergence; for plant injury at 125 g/ha: 125 g ai/ha, visual rating about 10 d after treatment, read-out: Corn plant response rating (0 to 100 scale); for Corn plant response rating (crop injury, 0 = no effect, 100 = complete kill) at 500 g/ha: 500 g ai/ha, visual injury, 0 to 100 scale (0 no effect, 100 complete control), approx. 10 d
# In short: as §1
# [5] = test system: giant foxtail (Setaria faberii); assay: Test A postemergence; settings: Setaria faberi, post-emergence, 240 h, Postemergence; for pest or weed control at 125 g/ha: 125 g ai/ha, visual rating about 10 d after treatment, read-out: Foxtail, Giant plant response rating (0 to 100 scale); for pest or weed control at 500 g/ha: 500 g ai/ha, visual injury, 0 to 100 scale (0 no effect, 100 complete control), approx. 10 d, read-out: Plant response rating, Foxtail, Giant
# In short: as §1
# [6] = test system: pigweed (Amaranthus retroflexus); assay: Test A postemergence; settings: Amaranthus retroflexus, post-emergence, 240 h, Postemergence; for pest or weed control at 125 g/ha: 125 g ai/ha, visual rating about 10 d after treatment, read-out: Pigweed plant response rating (0 to 100 scale); for pest or weed control at 500 g/ha: 500 g ai/ha, visual injury, 0 to 100 scale (0 no effect, 100 complete control), approx. 10 d, read-out: Plant response rating, Pigweed
# In short: as §1
# [7] = test system: ragweed (common ragweed, Ambrosia elatior); assay: Test A postemergence; settings: Ambrosia artemisiifolia, post-emergence, 240 h, Postemergence; for pest or weed control at 125 g/ha: 125 g ai/ha, visual rating about 10 d after treatment, read-out: Ragweed plant response rating (0 to 100 scale); for pest or weed control at 500 g/ha: 500 g ai/ha, visual injury, 0 to 100 scale (0 no effect, 100 complete control), approx. 10 d, read-out: Plant response rating, Ragweed
# In short: as §1
# [8] = test system: ryegrass, Italian (Italian ryegrass, Lolium multiflorum); assay: Test A postemergence; settings: Lolium multiflorum, post-emergence, 240 h, Postemergence; for pest or weed control at 125 g/ha: 125 g ai/ha, visual rating about 10 d after treatment, read-out: Ryegrass, Italian plant response rating (0 to 100 scale); for pest or weed control at 500 g/ha: 500 g ai/ha, visual injury, 0 to 100 scale (0 no effect, 100 complete control), approx. 10 d, read-out: Plant response rating, Ryegrass, Italian
# In short: as §1
# [9] = test system: wheat (Triticum aestivum); assay: Test A postemergence; settings: Triticum aestivum, post-emergence, 240 h, Postemergence; for plant injury at 125 g/ha: 125 g ai/ha, visual rating about 10 d after treatment, read-out: Wheat plant response rating (0 to 100 scale); for plant injury at 500 g/ha: 500 g ai/ha, visual injury, 0 to 100 scale (0 no effect, 100 complete control), approx. 10 d, read-out: Plant response rating, Wheat
# In short: as §1
# [10] = test system: barnyardgrass (Echinochloa crus-galli); assay: Test B flooded paddy test; settings: Echinochloa crus-galli, 250 g ai/ha, Flood
# In short: (§2)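 Compound goes directly into floodwater once pots are flooded 3 cm above soil, targeting plants at two leaves; the water depth is then held for the test duration. Plants sit 13–15 d in a greenhouse and are rated visually, 100 denoting complete control.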
# [11] = test system: ducksalad (Heteranthera limosa); assay: Test B flooded paddy test; settings: Heteranthera limosa, 250 g ai/ha, Flood
# In short: as §2
# rice (Oryra sativa) = assay: Test B flooded paddy test; settings: Oryza sativa, 250 g ai/ha, Flood
# In short: as §2
# [12] = test system: sedge, umbrella (small-flower umbrella sedge, Cyperus difformis); assay: Test B flooded paddy test; settings: Cyperus difformis, 250 g ai/ha, Flood
# In short: as §2
# [13] = 0 to 100 scale (0 no effect, 100 complete control), read-out: Plant response rating, Ryegrass, Italian
# [14] = 0 to 100 scale where 0 is no effect and 100 is complete control, read-out: Barnyardgrass plant response rating
# [15] = 0 to 100 scale where 0 is no effect and 100 is complete control, read-out: Ducksalad plant response rating
# [16] = 0 to 100 scale where 0 is no effect and 100 is complete control, read-out: Rice plant response rating
# [17] = 360 h, visually evaluated after 13 to 15 d, read-out: Plant response rating, Sedge, Umbrella (0 to 100 scale where 0 is no effect and 100 is complete control)
Compound,"pest or weed control at 125 g/ha [1, 13] [%]",pest or weed control at 125 g/ha [2] [%],pest or weed control at 500 g/ha [2] [%],pest or weed control at 125 g/ha (Kochia (Kochia scoparia)) [%],pest or weed control at 500 g/ha (Kochia (Kochia scoparia)) [%],pest or weed control at 125 g/ha [3] [%],pest or weed control at 500 g/ha [3] [%],pest or weed control at 125 g/ha [4] [%],pest or weed control at 500 g/ha [4] [%],plant injury at 125 g/ha (corn (Zea mays)) [%],"Corn plant response rating (crop injury, 0 = no effect, 100 = complete kill) at 500 g/ha (corn (Zea mays)) [%]",pest or weed control at 125 g/ha [5] [%],pest or weed control at 500 g/ha [5] [%],pest or weed control at 125 g/ha [6] [%],pest or weed control at 500 g/ha [6] [%],pest or weed control at 125 g/ha [7] [%],pest or weed control at 500 g/ha [7] [%],pest or weed control at 125 g/ha [8] [%],pest or weed control at 500 g/ha [8] [%],plant injury at 125 g/ha [9] [%],further results
Cc1cc(F)cc([C@H]2CNC(=O)[C@@H]2C(=O)Nc2cccc(F)c2F)c1 [Compound 1309],0,30,50,0,50,90,90,0,60,0,20,30,70,0,0,0,30,0,20,20,"pest or weed control at 500 g/ha ([1]; 0 to 100 scale where 0 is no effect and 100 is complete control, read-out: Ryegrass, Italian plant response rating): 20%; plant injury at 500 g/ha [9]: 20%; pest or weed control at 250 g/ha [10, 14]: 60%; pest or weed control at 250 g/ha [11, 15]: 100%; pest or weed control at 250 g/ha (rice (Oryra sativa); [16]): 20%; pest or weed control at 250 g/ha ([12]; 0 to 100 scale where 0 is no effect and 100 is complete control, read-out: Sedge, Umbrella plant response rating): 0%"
CN1C[C@H](c2ccc3c(c2)CCO3)[C@@H](C(=O)Nc2ccccc2F)C1=O [Compound 1321],0,30,50,0,50,90,90,30,50,40,70,90,90,0,0,0,20,20,50,20,"plant injury at 500 g/ha [9]: 50%; pest or weed control at 250 g/ha [10, 14]: 90%; pest or weed control at 250 g/ha [11, 15]: 85%; pest or weed control at 250 g/ha (rice (Oryra sativa); [16]): 0%; pest or weed control at 250 g/ha [12, 17]: 0%"
O=C1NC[C@H](c2cncs2)[C@H]1C(=O)Nc1ccccc1F [Compound 1335],0,0,0,0,0,0,0,0,0,0,0,0,0,0,0,0,0,0,0,0,"pest or weed control at 500 g/ha [1, 13]: 0%; plant injury at 500 g/ha [9]: 0%; pest or weed control at 250 g/ha ([10]; 360 h, visually evaluated after 13 to 15 d, read-out: Plant response rating, Barnyardgrass (0 to 100 scale where 0 is no effect and 100 is complete control)): 0%; pest or weed control at 250 g/ha ([11]; 360 h, visually evaluated after 13 to 15 d, read-out: Plant response rating, Ducksalad (0 to 100 scale where 0 is no effect and 100 is complete control)): 0%; pest or weed control at 250 g/ha (rice (Oryra sativa); 360 h, visually evaluated after 13 to 15 d, read-out: Plant response rating, Rice (0 to 100 scale where 0 is no effect and 100 is complete control)): 0%; pest or weed control at 250 g/ha [12, 17]: 0%"
